System: RKO p21 uninduced (proliferating) colon adenocarcinoma cells
Experiment: Alamar Blue cell viability assay, RKO p21 uninduced (proliferating)
Assay type: cell-based
Settings: Homo sapiens, Table B3, anti-proliferative/cytotoxic activity, 72 hours, read-out: −log EC50 RKO p21 uninduced (proliferating) (converted)
Outline: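 RKO p21 or p27 subclones grown without Ponasterone A, i.e. proliferating, exposed 24 h after seeding to semi-log compound dilutions in DMEM/10% FCS (1% DMSO controls) for 72 h at 37° C. Alamar Blue fluorescence (544/590 nm) read relative to untreated cells; EC50 from dose-response curves, given as −log EC50 (mol/l).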

Q: How did the EC50 turn out when `CN(CCO)CCN1C(=O)N2[C@H](c3cccc(O)c3)c3[nH]c4ccc(OC(F)F)cc4c3C[C@@]2(C)C1=O` (racemic) [Example 288, (3aSR,10RS)-6-(1,1-Difluoro-methoxy)-2-{2-[(2-hydroxy-ethyl)-methyl-amino]-ethyl}-10-(3-hydroxy-phenyl)-3a-methyl-3a,4,9,10-tetrahydro-2,9,10a-triaza-cyclopenta[b]fluorene-1,3-dione] was run?
A: 39.8 to 251 nM

Q: How did the EC50 turn out when `CCN(CCOC)CCN1C(=O)N2[C@H](c3cccc(O)c3)c3[nH]c4ccc(OC(F)F)cc4c3C[C@@]2(C)C1=O` (racemic) [Example 289, (3aSR,10RS)-6-(1,1-Difluoro-methoxy)-2-{2-[ethyl-(2-methoxy-ethyl)-amino]-ethyl}-10-(3-hydroxy-phenyl)-3a-methyl-3a,4,9,10-tetrahydro-2,9,10a-triaza-cyclopenta[b]fluorene-1,3-dione] was run?
A: 39.8 to 251 nM

Q: `C=CCN(C)CCN1C(=O)N2[C@H](c3cccc(O)c3)c3[nH]c4ccc(OC(F)F)cc4c3C[C@@]2(C)C1=O` (racemic) [Example 290, (3aSR,10RS)-2-[2-(Allyl-methyl-amino)-ethyl]-6-(1,1-difluoro-methoxy)-10-(3-hydroxy-phenyl)-3a-methyl-3a,4,9,10-tetrahydro-2,9,10a-triaza-cyclopenta[b]fluorene-1,3-dione] was tested. Which EC50 did it give?
A: 39.8 to 251 nM

Q: `C[C@@]12Cc3c([nH]c4ccc(OC(F)F)cc34)[C@@H](c3cccc(O)c3)N1C(=O)N(CCN1CCOCC1)C2=O` (racemic) [Example 292, (3aSR,10RS)-6-(1,1-Difluoro-methoxy)-10-(3-hydroxy-phenyl)-3a-methyl-2-(2-morpholin-4-yl-ethyl)-3a,4,9,10-tetrahydro-2,9,10a-triaza-cyclopenta[b]fluorene-1,3-dione] was tested. Which EC50 did it give?
A: 39.8 to 251 nM

Q: For `CC1CCN(CCN2C(=O)N3[C@H](c4cccc(O)c4)c4[nH]c5ccc(OC(F)F)cc5c4C[C@@]3(C)C2=O)CC1` (racemic) [Example 293, (3aSR,10RS)-6-(1,1-Difluoro-methoxy)-10-(3-hydroxy-phenyl)-3a-methyl-2-[2-(4-methyl-piperidin-1-yl)-ethyl]-3a,4,9,10-tetrahydro-2,9,10a-triaza-cyclopenta[b]fluorene-1,3-dione], which EC50 is on record?
A: 39.8 to 251 nM

Q: With `CN1CCN(CCN2C(=O)N3[C@H](c4cccc(O)c4)c4[nH]c5ccc(OC(F)F)cc5c4C[C@@]3(C)C2=O)CC1` (racemic) [Example 294, (3aSR,10RS)-6-(1,1-Difluoro-methoxy)-10-(3-hydroxy-phenyl)-3a-methyl-2-[2-(4-methyl-piperazin-1-yl)-ethyl}-3a,4,9,10-tetrahydro-2,9,10a-triaza-cyclopenta[b]fluorene-1,3-dione] as the molecule, how does the EC50 read?
A: 39.8 to 251 nM

Q: `CC(=O)N1CCN(CCN2C(=O)N3[C@H](c4cccc(O)c4)c4[nH]c5ccc(OC(F)F)cc5c4C[C@@]3(C)C2=O)CC1` (racemic) [Example 295, (3aSR,10RS)-2-[2-(4-Acetyl-piperazin-1-yl)-ethyl]-6-(1,1-difluoro-methoxy)-10-(3-hydroxy-phenyl)-3a-methyl-3a,4,9,10-tetrahydro-2,9,10a-triaza-cyclopenta[b]fluorene-1,3-dione] was tested. Which EC50 did it give?
A: 39.8 to 251 nM

Q: Which EC50 does the source give for `CCNCCN1C(=O)N2[C@H](c3cccc(O)c3)c3[nH]c4ccc(OCC)cc4c3C[C@@]2(C)C1=O` (racemic) [Example 296, (3aSR,10RS)-6-Ethoxy-2-(2-ethylamino-ethyl)-10-(3-hydroxy-phenyl)-3a-methyl-3a,4,9,10-tetrahydro-2,9,10a-triaza-cyclopenta[b]fluorene-1,3-dione] here?
A: ≤ 39.8 nM

Q: Which EC50 does the source give for `CCOc1ccc2[nH]c3c(c2c1)C[C@@]1(C)C(=O)N(CCN(C)CCO)C(=O)N1[C@@H]3c1cccc(O)c1` (racemic) [Example 297, (3aSR,10RS)-6-Ethoxy-2-{2-[(2-hydroxy-ethyl)-methyl-amino]-ethyl}-10-(3-hydroxy-phenyl)-3a-methyl-3a,4,9,10-tetrahydro-2,9,10a-triaza-cyclopenta[b]fluorene-1,3-dione] here?
A: 39.8 to 251 nM

Q: For `CCOc1ccc2[nH]c3c(c2c1)C[C@@]1(C)C(=O)N(CCN(CC)CCO)C(=O)N1[C@@H]3c1cccc(O)c1` (racemic) [Example 298, (3aSR,10RS)-6-Ethoxy-2-{2-[ethyl-(2-hydroxy-ethyl)-amino]-ethyl}-10-(3-hydroxy-phenyl)-3a-methyl-3a,4,9,10-tetrahydro-2,9,10a-triaza-cyclopenta[b]fluorene-1,3-dione], which EC50 is on record?
A: 39.8 to 251 nM

Q: How did the EC50 turn out when `CCOc1ccc2[nH]c3c(c2c1)C[C@@]1(C)C(=O)N(CCN(CC)CCOC)C(=O)N1[C@@H]3c1cccc(O)c1` (racemic) [Example 299, (3aSR,10RS)-6-Ethoxy-2-{2-[ethyl-(2-methoxy-ethyl)-amino]-ethyl}-10-(3-hydroxy-phenyl)-3a-methyl-3a,4,9,10-tetrahydro-2,9,10a-triaza-cyclopenta[b]fluorene-1,3-dione] was run?
A: 39.8 to 251 nM

Q: Which EC50 does the source give for `C=CCN(C)CCN1C(=O)N2[C@H](c3cccc(O)c3)c3[nH]c4ccc(OCC)cc4c3C[C@@]2(C)C1=O` (racemic) [Example 300, (3aSR,10RS)-2-[2-(Allyl-methyl-amino)-ethyl]-6-ethoxy-10-(3-hydroxy-phenyl)-3a-methyl-3a,4,9,10-tetrahydro-2,9,10a-triaza-cyclopenta[b]fluorene-1,3-dione] here?
A: 39.8 to 251 nM

Q: Which EC50 does the source give for `CCOc1ccc2[nH]c3c(c2c1)C[C@@]1(C)C(=O)N(CCN2CCC(C)CC2)C(=O)N1[C@@H]3c1cccc(O)c1` (racemic) [Example 302, (3aSR,10RS)-6-Ethoxy-10-(3-hydroxy-phenyl)-3a-methyl-2-[2-(4-methyl-piperidin-1-yl)-ethyl]-3a,4,9,10-tetrahydro-2,9,10a-triaza-cyclopenta[b]fluorene-1,3-dione] here?
A: 39.8 to 251 nM

Q: `CNCCCN1C(=O)N2[C@H](c3cccc(O)c3)c3[nH]c4cc(F)c(OC)cc4c3C[C@@]2(C)C1=O` (racemic) [Example 303, (3aSR,10RS)-7-Fluoro-10-(3-hydroxy-phenyl)-6-methoxy-3a-methyl-2-(3-methylamino-propyl)-3a,4,9,10-tetrahydro-2,9,10a-triaza-cyclopenta[b]fluorene-1,3-dione] was tested. Which EC50 did it give?
A: 39.8 to 251 nM

Q: `COc1cc2c3c([nH]c2cc1F)[C@@H](c1cccc(O)c1)N1C(=O)N(CCCNCC2CC2)C(=O)[C@]1(C)C3` (racemic) [Example 304, (3aSR,10RS)-2-[3-(Cyclopropylmethyl-amino)-propyl]-7-fluoro-10-(3-hydroyx-phenyl)-6-methoxy-3a-methyl-3a,4,9,10-tetrahydro-2,9,10a-triaza-cyclopenta[b]fluorene-1,3-dione] was tested. Which EC50 did it give?
A: 39.8 to 251 nM

Q: Which EC50 does the source give for `COc1cc2c3c([nH]c2cc1F)[C@@H](c1cccc(O)c1)N1C(=O)N(CCCNCCO)C(=O)[C@]1(C)C3` (racemic) [Example 305, (3aSR,10RS)-7-Fluoro-2-[3-(2-hydroxy-ethylamino)-propyl]-10-(3-hydroyx-phenyl)-6-methoxy-3a-methyl-3a,4,9,10-tetrahydro-2,9,10a-triaza-cyclopenta[b]fluorene-1,3-dione] here?
A: 39.8 to 251 nM

Q: Which EC50 does the source give for `COCCNCCCN1C(=O)N2[C@H](c3cccc(O)c3)c3[nH]c4cc(F)c(OC)cc4c3C[C@@]2(C)C1=O` (racemic) [Example 306, (3aSR,10RS)-7-Fluoro-10-(3-hydroxy-phenyl)-6-methoxy-2-[3-(2-methoxy-ethylamino)-propyl]-3a-methyl-3a,4,9,10-tetrahydro-2,9,10a-triaza-cyclopenta[b]fluorene-1,3-dione] here?
A: 39.8 to 251 nM

Q: How did the EC50 turn out when `COc1cc2c3c([nH]c2cc1F)[C@@H](c1cccc(O)c1)N1C(=O)N(CCCNC(C)(C)C)C(=O)[C@]1(C)C3` (racemic) [Example 308, (3aSR,10RS)-2-(3-tert-Butylamino-propyl)-7-fluoro-10-(3-hydroxy-phenyl)-6-methoxy-3a-methyl-3a,4,9,10-tetrahydro-2,9,10a-triaza-cyclopenta[b]fluorene-1,3-dione] was run?
A: 39.8 to 251 nM

Q: Which EC50 does the source give for `C#CCNCCCN1C(=O)N2[C@H](c3cccc(O)c3)c3[nH]c4cc(F)c(OC)cc4c3C[C@@]2(C)C1=O` (racemic) [Example 309, (3aSR,10RS)-7-Fluoro-10-(3-hydroxy-phenyl)-6-methoxy-3a-methyl-2-(3-prop-2-ynylamino-propyl)-3a,4,9,10-tetrahydro-2,9,10a-triaza-cyclopenta[b]fluorene-1,3-dione] here?
A: 39.8 to 251 nM

Q: For `COc1cc2c3c([nH]c2cc1F)[C@@H](c1cccc(O)c1)N1C(=O)N(CCCN(C)C)C(=O)[C@]1(C)C3` (racemic) [Example 310, (3aSR,10RS)-2-(3-Dimethylamino-propyl)-7-fluoro-10-(3-hydroxy-phenyl)-6-methoxy-3a-methyl-3a,4,9,10-tetrahydro-2,9,10a-triaza-cyclopenta[b]fluorene-1,3-dione], which EC50 is on record?
A: 39.8 to 251 nM

Q: With `CCN(C)CCCN1C(=O)N2[C@H](c3cccc(O)c3)c3[nH]c4cc(F)c(OC)cc4c3C[C@@]2(C)C1=O` (racemic) [Example 311, (3aSR,10RS)-2-[3-(Ethyl-methyl-amino)-propyl]-7-fluoro-10-(3-hydroxy-phenyl)-6-methoxy-3a-methyl-3a,4,9,10-tetrahydro-2,9,10a-triaza-cyclopenta[b]fluorene-1,3-dione] as the molecule, how does the EC50 read?
A: 39.8 to 251 nM

Q: With `COc1cc2c3c([nH]c2cc1F)[C@@H](c1cccc(O)c1)N1C(=O)N(CCCN(C)CCO)C(=O)[C@]1(C)C3` (racemic) [Example 312, (3aSR,10RS)-7-Fluoro-2-{3-[(2-hydroxy-ethyl)-methyl-amino]-propyl}-10-(3-hydroyx-phenyl)-6-methoxy-3a-methyl-3a,4,9,10-tetrahydro-2,9,10a-triaza-cyclopenta[b]fluorene-1,3-dione] as the molecule, how does the EC50 read?
A: 39.8 to 251 nM

Q: With `CCN(CC)CCCN1C(=O)N2[C@H](c3cccc(O)c3)c3[nH]c4cc(F)c(OC)cc4c3C[C@@]2(C)C1=O` (racemic) [Example 313, (3aSR,10RS)-2-(3-Diethylamino-propyl)-7-fluoro-10-(3-hydroxy-phenyl)-6-methoxy-3a-methyl-3a,4,9,10-tetrahydro-2,9,10a-triaza-cyclopenta[b]fluorene-1,3-dione] as the molecule, how does the EC50 read?
A: 39.8 to 251 nM

Reference: US8530493B2, “Indolopyridines as Eg5 kinesin modulators” (4SC AG, priority 2006, dated 2013)
